# According to patent publication US11028078B2 (The Johns Hopkins University, priority 2011, dated 2021):
# What was measured:
# Gli1 transcript = experiment: Quantification of Gli1 transcript by TaqMan analysis in MB cells (Hh pathway); type: cell-based, mouse; conditions: for Gli I Inhibition (IC90 Prolif. dose): Gli1 transcript fold induction score, MB cells exposed 24 h at the IC90 for MB proliferation; for inhibition of Gli1 transcript levels: established MB cultures, FIG. 9B
# Excerpt: Inhibitors of the Hh pathway are known to inhibit MB cell proliferation. However, MB cell proliferation is also affected by drugs with targets other than Hh signaling.
# Following drug exposure, cells were washed in PBS and pelleted by centrifugation at 300×g. Cell pellets were lysed in Trizol reagent (Invitrogen). Total RNA was separated and collected in the aqueous phase following centrifugation of lysate in the presence of chloroform. Total RNA was ethanol precipitated and purified over RNeasy Mini Kit (Qiagen) filter columns per manufacturer's recommendations. Transcript levels were quantified using gene-specific TaqMan primer/probe sets and the StepOne Plus Real-Time PCR system (Applied Biosystems) on cDNA reverse transcribed using the QuantiTect Reverse Transcription Kit (Qiagen) per manufacturers' recommendations. Results were quantified using StepOne Plus software v2.1 (Applied Biosystems) and were expressed as fold induction relative to control samples using the A ΔCt (2^−ΔΔCt) method with actin as an internal control. The primer/probe set (Applied Biosystems) for TaqMan PCR for mouse Gli-1 was Mm00494645_m1, and for mouse actin was Mm00607939_s1.
# [1] = tested on: MB cultures derived from Ptch−/+; p53−/− mice; experiment: Medulloblastoma (MB) proliferation assay; type: cell-based, mouse; conditions: for MB Proliferation (IC50/IC50 Itra): mouse medulloblastoma cultures, 96 h, relative to itraconazole; for inhibition of MB proliferation: FIG. 9A
# Excerpt: These cultures were derived from Ptch^−/+; p53^−/− mice that spontaneously develop medulloblastoma associated with ligand independent Hh pathway activation.
# MB cultures were derived from mouse Ptch^−/+; p53^−/− MB grown as hind-flank allografts in nude mice (Harlan). Briefly, tumors were mechanically disrupted and made into single cell suspensions by two passages through a 70 μm nylon filter. Cells were pelleted by centrifugation and resuspended in PBS pH 7.4 twice. The cell suspension was then subjected to centrifugation at 1000×g for 25 min over a ficoll gradient. The viable cell layer formed at the ficoll boundary was then collected, suspended in PBS, and pelleted by centrifugation. The resulting pellet was then suspended and cultured as “neurospheres” in Neurobasal Media-A supplemented with retinoic acid deficient B-27 extract (NBMedia). Cells were cultured for three passages, with neurospheres disaggregated using Accumax (Innovative Cell Technologies) between passages.
# Cultured MB neurospheres were disaggregated as described and 1×10^4 cells were seeded into wells of a 96-well assay plate in NBMedia and exposed to multiple analogue concentrations: Relative cell numbers following a 96-h incubation were quantified by CellTiter 96® AQueous One Solution Cell Proliferation Assay (Promega) per manufacturer's recommendations using a SpectraMax M2e spectrophotometer and SoftMax Pro software (Molecular Devices). Data was analyzed using Prism5 (GraphPad Software) and IC50 and IC90 values were determined from dose-response curves fitted to mean corrected absorbance normalized to control treatment.
# VEGFR2 = VEGFR2 glycosylation in HUVEC (Western blot scoring); type: cell-based, human; conditions: for Glycosylation (2 μM dose): VEGFR2 hypoglycosylation score in HUVEC, 24 h; for VEGFR2 glycosylation defect: data not shown
# Description: VEGFR2 hypoglycosylation was scored either robust (++), intermediate (+), or absent (−) (FIG. 6).
# HUVEC were seeded at 5×10^4 per well of a 6-well plate in 3 mL of media. After an overnight recovery, the media was replaced with 2 mL fresh media and the analogs were added from 200× stocks in DMSO. Following a 24-h incubation, the media was aspirated and 2×SDS sample buffer was added to the cells which were incubated on ice for 10 min and then boiled for 10 min. […] Following three washes in TBS-T, the membrane was incubated with anti-rabbit horseradish peroxidase conjugated IgG (GE Healthcare) (1:5000-1:10000 dilution) in 1% BSA in TBS-T. The membranes were washed three times in TBS-T, incubated for 1-5 minutes with ECL substrate (Immobilon Wester, Milipore) and visualized (Kodak Image Staion 440 CF).
# HUVEC = HUVEC proliferation assay ([3H]thymidine incorporation); type: cell-based, human; conditions: for Proliferation (IC50/IC50 Itra): IC50 of analog relative to IC50 of itraconazole; for IC50: Homo sapiens, Table 5, read-out: Activity in HUVEC Proliferation IC50; for inhibition of HUVEC proliferation: data not shown
# Description: The activity of the analogs against HUVEC proliferation, an in vitro proxy for angiogenesis inhibition (Table 3) was analyzed. […]
# Pooled HUVEC (Lonza) were grown in EGM-2 bullet kit media (Lonza) and used at passage eight or lower. The proliferation assays were conducted as previously described (Nacev, B.; Low, W. K.; Huang, Z.; Su, T.; Su, Z.; Alkuraya, H.; Kasuga, D.; Sun, W.; Trager, M.; Braun, M.; Fischer, G.; Zhang, K.; Liu, J. O., Acalcineurin-independent mechanism of angiogenesis inhibition by anon-immunosuppressive Cyclosporin Aanalog. J. Pharmacol. Exp. Ther. 2011, DOI:10.1124/jpet.111.18085).
Compound,Gli I Inhibition (IC90 Prolif. dose) (Gli1 transcript),MB Proliferation (IC50/IC50 Itra) [1],Glycosylation (2 μM dose) (VEGFR2),Proliferation (IC50/IC50 Itra) (HUVEC; HUVEC),also measured
"CC/C=C\CCn1ncn(-c2ccc(N3CCN(c4ccc(OCC5COC(Cn6cncn6)(c6ccc(Cl)cc6Cl)O5)cc4)CC3)cc2)c1=O [Compound 7t, cis-(2S,4R)-4-[4-[4-[4-[[2-(2,4-Dichlorophenyl)-2-(1H-1,2,4-triazol-1-ylmethyl)-13-dioxolan-4-yl]methoxy]phenyl]-lpiperazinyl]phenyl]-2,4-dihydro-2-((Z)-hex-3-enyl)-3H-1,2,4-triazol-3-one]",++ (≤0.15),0.94,−,0.73,
"O=c1n(-c2ccc(N3CCN(c4ccc(OCC5COC(Cn6cncn6)(c6ccc(Cl)cc6Cl)O5)cc4)CC3)cc2)cnn1CC1CCCC1 [Compound 7l, cis-(2S,4R)-4-[4-[4-[4-[[2-(2/l-Dichlorophenyl)-2-(1H-1,2,4-triazol-1-ylmethyl)-1,3-dioxolan-4-yl]methoxy]phenyl]-lpiperazinyl]phenyl]-2,4-dihydro-2-(1-cyclopentylmethyl)-3H-1,2,4-triazol-3-one]",+ (0.16 to 0.44),0.50,++,0.50,
"N#CCCCCCn1ncn(-c2ccc(N3CCN(c4ccc(OCC5COC(Cn6cncn6)(c6ccc(Cl)cc6Cl)O5)cc4)CC3)cc2)c1=O [Compound 7u, cis-(2S,4R)-4-[4-[4-[4-[[2-(2,4-Dichlorophenyl)-2-(1H-1,2,4-triazol-1-ylmethyl)-1,3-dioxolan-4-yl]methoxy]phenyl]-]piperazinyl]phenyl]-2,4-dihydro-2-(5-cyanopentyl)-3H-1,2,4-triazol-3-one]",+ (0.16 to 0.44),0.84,++,0.18,
"CC1(CCn2ncn(-c3ccc(N4CCN(c5ccc(OCC6COC(Cn7cncn7)(c7ccc(Cl)cc7Cl)O6)cc5)CC4)cc3)c2=O)N=N1 [Compound 7w, cis-(2S,4R)-4-[4-[4-[4-[[2-(2,4-Dichlorophenyl)-2-(1H-1,2,4-triazol-1-ylmethyl)-1,3-dioxolan-4-yl]methoxy]phenyl]-lpiperazinyl]phenyl]-2,4-dihydro-2-(2-(3-methyl-3H-diazirin-3-yl)ethyl)-3H-1,2,4-triazol-3-one]",+ (0.16 to 0.44),1.32,+,>13.8,
CCC(C)n1ncn(-c2ccc(N3CCN(c4ccc(OCC5CO[C@@](Cn6cncn6)(c6ccc(Cl)cc6Cl)O5)cc4)CC3)cc2)c1=O (stereo partly shown) [Compound 46a],,,,,IC50 (HUVEC; HUVEC): 155 nM
"CCCCCn1ncn(-c2ccc(N3CCN(c4ccc(OCC5COC(Cn6cncn6)(c6ccc(Cl)cc6Cl)O5)cc4)CC3)cc2)c1=O [Compound 7g, cis-(2S,4R)-4-[4-[4-[4-[[2-(2,4-Dichlorophenyl)-2-(1H-1,2,4-triazol-1-ylmethyl)-1,3-dioxolan-4-yl]methoxy]phenyl]-lpiperazinyl]phenyl]-2,4-dihydro-2-pentyl-3H-1,2,4-triazol-3-one]",++ (≤0.15),0.66,−,1.09,
"CCCCn1ncn(-c2ccc(N3CCN(c4ccc(OC[C@@H]5CO[C@@](Cn6cncn6)(c6ccc(Cl)cc6Cl)O5)cc4)CC3)cc2)c1=O (relative stereo) [Compound 7e, cis-(2S,4R)-4-[4-[4-[4-[[2-(2,4-Dichlorophenyl)-2-(1H-1,2,4-triazol-1-ylmethyl)-1,3-dioxolan-4-yl]methoxy]phenyl]-lpiperazinyl]phenyl]-2,4-dihydro-2-butyl-3H-1,2,4-triazol-3-one]",− (≥0.45),0.70,−,2.10,
"CCCCCCCCn1ncn(-c2ccc(N3CCN(c4ccc(OCC5COC(Cn6cncn6)(c6ccc(Cl)cc6Cl)O5)cc4)CC3)cc2)c1=O [Compound 7m, cis-(2S,4R)-4-[4-[4-[4-[[2-(2,4-Dichlorophenyl)-2-(1H-1,2,4-triazol-1-ylmethyl)-1,3-dioxolan-4-yl]methoxy]phenyl]-piperazinyl]phenyl]-2,4-dihydro-2-(n-octyl)-3H-1,2,4-triazol-3-one]",++ (≤0.15),0.67,−,,"Proliferation (EC50/IC50 Itra) (HUVEC; HUVEC, footnote g: EC50 of analog relative to IC50 of itraconazole): 2.24^g"
"CC(=O)N1CCN(c2ccc(OCC3COC(Cn4ccnc4)(c4ccc(Cl)cc4Cl)O3)cc2)CC1 (stereo not shown) [ketoconazole, reference compound]",,,,,VEGFR2 glycosylation defect (VEGFR2): fail to induce the VEGFR2 glycosylation defect; inhibition of HUVEC proliferation (HUVEC): do not inhibit proliferation
HhAntag [reference compound],,,,,inhibition of Gli1 transcript levels (Gli1 transcript): Dose-dependent inhibition; inhibition of MB proliferation [1]: Dose-dependent inhibition
CCC(C)n1ncn(-c2ccc(N3CCN(c4ccc(OCC5CO[C@](Cn6cncn6)(c6ccc(Cl)cc6Cl)O5)cc4)CC3)cc2)c1=O (stereo partly shown) [Compound 46b],,,,,IC50 (HUVEC; HUVEC): 236 nM
"O=C(c1ccccc1)c1ccc(OCCCCCCn2ncn(-c3ccc(N4CCN(c5ccc(OCC6COC(Cn7cncn7)(c7ccc(Cl)cc7Cl)O6)cc5)CC4)cc3)c2=O)cc1 [Compound 7q, cis-(2S,4R)-4-[4-[4-[4-[[2-(2,4-Dichlorophenyl)-2-(1H-1,2,4-triazol-1-ylmethyl)-1,3-dioxolan-4-yl]methoxy]phenyl]-piperazinyl]phenyl]-2,4-dihydro-2-(6-(4-benzoylphenoxy)hexyl)-3H-1,2,4-triazol-3-one]",− (≥0.45),0.8,−,,
"CC(C)N1CCN(c2ccc(OCC3COC(Cn4cncn4)(c4ccc(Cl)cc4Cl)O3)cc2)CC1 (stereo not shown) [terconazole, reference compound]",,,,,VEGFR2 glycosylation defect (VEGFR2): fail to induce the VEGFR2 glycosylation defect; inhibition of HUVEC proliferation (HUVEC): do not inhibit proliferation
"CC[C@@H](C)n1ncn(-c2ccc(N3CCN(c4ccc(OCC5CO[C@@](Cn6cncn6)(c6ccc(Cl)cc6Cl)O5)cc4)CC3)cc2)c1=O (stereo partly shown) [Itraconazole C, reference compound]",,,,,IC50 (HUVEC; HUVEC): 152 nM
"CS(=O)(=O)c1ccc(C(=O)Nc2ccc(Cl)c(-c3ccccn3)c2)c(Cl)c1 [GDC-0449, reference compound]",,,,,inhibition of Gli1 transcript levels (Gli1 transcript): Dose-dependent inhibition; inhibition of MB proliferation [1]: Dose-dependent inhibition
CCC(C)n1ncn(-c2ccc(N3CCN(c4ccc(OCC5CO[C@@](Cn6cncn6)(c6ccc(Cl)cc6Cl)O5)nc4)CC3)c(C)c2)c1=O (stereo partly shown) [Compound 47a],,,,,IC50 (HUVEC; HUVEC): 155 nM
